pIC50: −log10 of the molar value. Like-named read-outs stand apart in the source and are kept apart here.
Tests used:
[1] = molecular target: p110α/p85α (Homo sapiens (Human), UniProt P42336); assay: PI 3-Kinase (human) HTRF assay, p110α/p85α; assay type: biochemical
Procedure: An exemplary system is PI 3-Kinase (human) HTRF™ Assay from Upstate. […] Briefly, the assay is a time resolved FRET assay that indirectly measures PIP3 product formed by the activity of a PI3-K. The kinase reaction is performed in a microtitre plate (e.g., a 384 well microtitre plate). The total reaction volume is approximately 20 ul per well. In the first step, each well receives 2 ul of test compound in 20% dimethylsulphoxide resulting in a 2% DMSO final concentration. Next, approximately 14.5 ul of a kinase/PIP2 mixture (diluted in 1× reaction buffer) is added per well for a final concentration of 0.25-0.3 ug/ml kinase and 10 μM PIP2. The plate is sealed and incubated for 15 minutes at room temperature. To start the reaction, 3.5 ul of ATP (diluted in 1× reaction buffer) is added per well for a final concentration of 10 μM ATP. The plate is sealed and incubated for 1 hour at room temperature. The reaction is stopped by adding 5 ul of Stop Solution per well and then 5 ul of Detection Mix is added per well. The plate is sealed, incubated for 1 hour at room temperature, and then read on an appropriate plate reader. Data is analyzed and IC50s are generated using GraphPad Prism 5. […] For PI3K α, β, δ, and γ, the nM concentration of inhibitor to reach IC50 is provided.

[2] = molecular target: p110γ (Homo sapiens (Human), UniProt P48736); assay: PI 3-Kinase (human) HTRF assay, p110γ; assay type: biochemical
[3] = in vitro, read-out: PI3K α IC50
[4] = in vitro, read-out: PI3K γ IC50

Chain of p110α/p85α (P42336 whole entry): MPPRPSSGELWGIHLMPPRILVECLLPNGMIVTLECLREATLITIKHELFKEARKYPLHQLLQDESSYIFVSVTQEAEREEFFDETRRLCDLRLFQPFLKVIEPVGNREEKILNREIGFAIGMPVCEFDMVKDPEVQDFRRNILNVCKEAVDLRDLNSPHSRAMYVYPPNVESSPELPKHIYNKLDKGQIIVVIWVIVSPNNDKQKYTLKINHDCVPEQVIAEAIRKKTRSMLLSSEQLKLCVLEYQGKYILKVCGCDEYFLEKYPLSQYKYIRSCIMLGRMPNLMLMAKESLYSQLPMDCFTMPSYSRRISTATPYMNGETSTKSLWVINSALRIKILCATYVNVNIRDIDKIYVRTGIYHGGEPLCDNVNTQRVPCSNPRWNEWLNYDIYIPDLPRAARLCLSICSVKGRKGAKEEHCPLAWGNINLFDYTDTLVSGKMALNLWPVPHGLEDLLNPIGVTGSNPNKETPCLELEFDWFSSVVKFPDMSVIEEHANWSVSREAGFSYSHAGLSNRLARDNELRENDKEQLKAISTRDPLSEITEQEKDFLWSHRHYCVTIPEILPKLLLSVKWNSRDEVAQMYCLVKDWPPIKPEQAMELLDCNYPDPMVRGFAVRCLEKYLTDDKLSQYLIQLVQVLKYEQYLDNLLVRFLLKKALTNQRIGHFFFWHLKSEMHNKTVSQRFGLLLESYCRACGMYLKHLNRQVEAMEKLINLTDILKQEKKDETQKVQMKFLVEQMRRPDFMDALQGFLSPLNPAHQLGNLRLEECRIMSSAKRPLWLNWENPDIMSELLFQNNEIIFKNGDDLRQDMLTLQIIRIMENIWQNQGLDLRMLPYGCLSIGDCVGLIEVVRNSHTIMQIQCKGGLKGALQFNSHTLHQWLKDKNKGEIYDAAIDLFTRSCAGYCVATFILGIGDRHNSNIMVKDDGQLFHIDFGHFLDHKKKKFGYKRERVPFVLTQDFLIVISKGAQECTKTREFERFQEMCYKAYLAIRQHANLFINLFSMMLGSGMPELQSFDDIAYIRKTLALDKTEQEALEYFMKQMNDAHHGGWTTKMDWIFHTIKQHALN
Chain of p110α/p85α (P27986 whole entry partner): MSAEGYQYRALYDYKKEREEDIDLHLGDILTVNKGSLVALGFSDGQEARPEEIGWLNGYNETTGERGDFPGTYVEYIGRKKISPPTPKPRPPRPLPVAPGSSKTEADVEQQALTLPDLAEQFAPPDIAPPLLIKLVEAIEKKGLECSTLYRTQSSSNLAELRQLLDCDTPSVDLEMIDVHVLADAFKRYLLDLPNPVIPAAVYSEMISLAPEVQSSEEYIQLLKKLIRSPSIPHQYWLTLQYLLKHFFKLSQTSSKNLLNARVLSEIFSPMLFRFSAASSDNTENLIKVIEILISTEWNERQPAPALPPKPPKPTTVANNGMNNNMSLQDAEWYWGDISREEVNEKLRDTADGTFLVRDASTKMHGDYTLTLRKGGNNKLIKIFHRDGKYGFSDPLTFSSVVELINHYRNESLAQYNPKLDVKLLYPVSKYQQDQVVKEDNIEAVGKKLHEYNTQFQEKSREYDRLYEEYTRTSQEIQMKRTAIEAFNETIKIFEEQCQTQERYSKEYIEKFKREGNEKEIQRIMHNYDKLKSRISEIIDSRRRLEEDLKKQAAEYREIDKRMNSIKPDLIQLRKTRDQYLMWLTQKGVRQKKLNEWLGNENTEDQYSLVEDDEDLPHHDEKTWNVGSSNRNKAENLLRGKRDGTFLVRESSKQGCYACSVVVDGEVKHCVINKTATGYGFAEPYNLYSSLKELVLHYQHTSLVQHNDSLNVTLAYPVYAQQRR
Chain of p110γ (P48736 whole entry): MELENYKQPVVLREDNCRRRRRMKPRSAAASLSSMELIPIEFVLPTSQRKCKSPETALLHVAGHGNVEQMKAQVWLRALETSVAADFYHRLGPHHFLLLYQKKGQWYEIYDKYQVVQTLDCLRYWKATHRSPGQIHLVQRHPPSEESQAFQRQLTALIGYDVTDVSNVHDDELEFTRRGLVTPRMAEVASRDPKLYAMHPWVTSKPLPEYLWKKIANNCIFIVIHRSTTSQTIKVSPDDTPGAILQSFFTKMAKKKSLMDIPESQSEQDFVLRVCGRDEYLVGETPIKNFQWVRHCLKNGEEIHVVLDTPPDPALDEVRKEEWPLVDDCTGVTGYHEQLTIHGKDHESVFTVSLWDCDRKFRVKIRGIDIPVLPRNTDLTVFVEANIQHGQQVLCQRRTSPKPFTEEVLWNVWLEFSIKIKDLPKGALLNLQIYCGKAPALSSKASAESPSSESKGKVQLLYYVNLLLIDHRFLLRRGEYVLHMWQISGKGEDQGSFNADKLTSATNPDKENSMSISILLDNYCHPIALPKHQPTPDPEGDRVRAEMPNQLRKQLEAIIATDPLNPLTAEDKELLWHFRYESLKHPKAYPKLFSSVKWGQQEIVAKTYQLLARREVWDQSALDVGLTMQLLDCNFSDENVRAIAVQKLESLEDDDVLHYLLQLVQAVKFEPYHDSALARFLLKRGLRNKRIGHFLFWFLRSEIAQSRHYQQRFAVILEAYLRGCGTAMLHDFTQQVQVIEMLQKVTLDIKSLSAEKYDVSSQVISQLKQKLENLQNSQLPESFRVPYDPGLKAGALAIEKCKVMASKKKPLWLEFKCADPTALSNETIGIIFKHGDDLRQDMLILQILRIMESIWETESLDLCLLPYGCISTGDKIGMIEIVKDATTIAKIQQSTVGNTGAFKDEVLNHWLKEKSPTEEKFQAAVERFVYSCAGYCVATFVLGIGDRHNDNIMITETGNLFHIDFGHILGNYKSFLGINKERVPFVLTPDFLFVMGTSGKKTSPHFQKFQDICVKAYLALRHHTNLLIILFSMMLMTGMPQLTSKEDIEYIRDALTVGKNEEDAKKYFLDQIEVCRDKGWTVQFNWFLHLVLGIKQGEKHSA

Row | SMILES | pIC50 ([1]; read-out: PI3K α IC50) | pIC50 [1, 3] | pIC50 ([1]; read-out: PI3K α In Vitro IC50) | further results
1 | Nc1nc2cc(-c3ccc4ncc(C(=O)N5CCOCC5)nc4c3)ccc2o1 [compound 158] | > 5.00 |  |  | 
2 | Cc1c(-c2ccc3oc(N)nc3c2)ccc2ncc(N3CC(N4CCNCC4)C3)nc12 [compound 386] |  | > 7.00 |  | 
3 | Nc1nc2cc(-c3ccc4ncc(N5CCNCC5=O)nc4c3)ccc2o1 [compound 389] |  | > 6.00 |  | pIC50 [2, 4]: > 5.00
4 | Nc1nc2cc(-c3ccc4ncc(C(=O)N5CC[C@H](N6CCOCC6)C5)n4c3)ccc2o1 [compound 465] |  |  | > 7.00 | pIC50 ([2]; read-out: PI3K γ In Vitro IC50): > 6.00
5 | Nc1nc2cc(-c3ccc4nccc(NC5CCOCC5)c4c3)ccc2o1 [compound 32] | > 5.00 |  |  | pIC50 ([2]; read-out: PI3K γ IC50): > 5.00
6 | NC(=O)[C@H]1CCCN1C(=O)c1cnc2ccc(-c3ccc4oc(N)nc4c3)cn12 [compound 260] |  | > 6.00 |  | pIC50 [2, 4]: > 5.00
7 | CC(=O)Nc1cc2ccc(-c3cc(F)c4oc(N)nc4c3)cn2n1 [compound 401] |  |  |  | pIC50 ([2]; read-out: PI3K γ In Vitro IC50): > 5.00
8 | Nc1nc2ccc(-c3ccc4ncc(N5CCOCC5)nc4c3)cc2s1 [compound 114] | > 7.00 |  |  | pIC50 ([2]; read-out: PI3K γ IC50): > 6.00
9 | Nc1nc2cc(-c3ccc4ncc(C(=O)N5CCOCC5)n4c3)c(Cl)cc2o1 [compound 370] |  | > 5.00 |  | 
10 | O=C(c1cnc2ccc(-c3cnc(Cl)c4[nH]ncc34)cn12)N1CCOCC1 [compound 516] |  |  | > 6.00 | 
11 | CN(C)CCn1cnc2ccc(-c3ccc4oc(N)nc4c3)cc2c1=O [compound 292] |  | > 5.00 |  | 
12 | CNS(=O)(=O)c1cncc(-c2ccc3ncc(C(=O)N4CCOCC4)n3c2)c1 [compound 450] |  |  | > 5.00 | 
13 | Nc1nc2cc(-c3ccc4ncc(N5CCS(=O)(=O)CC5)nc4c3)ccc2o1 [compound 98] | > 7.00 |  |  | pIC50 ([2]; read-out: PI3K γ IC50): > 7.00
14 | CN1CCN(C(=O)c2cnc3ccc(-c4ccc5oc(N)nc5c4)cc3n2)CC1 [compound 157] | > 5.00 |  |  | 
15 | Nc1nc2cc(-c3ccc4ncn(C5CCOCC5)c4c3)ccc2o1 [compound 48] | > 5.00 |  |  | 
16 | Nc1nc2nc(-c3ccc4ncc(C(=O)N5CCOCC5)n4c3)ccc2o1 [compound 412] |  |  | > 5.00 | 
17 | Nc1ncc(-c2ccc3ncc(C(=O)N4CCOCC4)n3c2)cc1C(F)(F)F [compound 410] |  |  | > 5.00 | 
18 | NC(=O)[C@@H]1CCCN1C(=O)c1cnc2ccc(-c3ccc4oc(N)nc4c3)cn12 [compound 259] |  | > 6.00 |  | pIC50 [2, 4]: > 5.00
19 | Nc1nc2cc(-c3ccc4ncc(C(=O)N5CCC(N6CC(F)(F)C6)C5)n4c3)ccc2o1 (centres unmarked) [compound 498] |  |  | > 6.00 | pIC50 ([2]; read-out: PI3K γ In Vitro IC50): > 5.00
20 | CC1CN(C(=O)c2cnc3ccc(-c4ccc5oc(N)nc5c4)cn23)CC(C)N1 (centres unmarked) [compound 142] | > 5.00 |  |  | 
21 | COc1ccc(-c2ccc3ncc(C(=O)N4CCOCC4)n3c2)cc1NS(=O)(=O)c1ccccc1 [compound 455] |  |  | > 5.00 | pIC50 ([2]; read-out: PI3K γ In Vitro IC50): > 5.00
22 | Nc1nc2cc(-c3c[nH]c4nccc(-c5ccncc5)c34)ccc2o1 [compound 25] | > 5.00 |  |  | pIC50 ([2]; read-out: PI3K γ IC50): > 5.00
23 | O=C(c1cnc2ccc(-c3cccc4[nH]ncc34)cn12)N1CCOCC1 [compound 506] |  |  | > 7.00 | 
24 | CN1CCN(n2cnc3ccc(-c4ccc5oc(N)nc5c4)cc3c2=O)CC1 [compound 446] |  |  | > 6.00 | 

Row | SMILES | pIC50 ([1]; read-out: PI3K α IC50) | pIC50 [1, 3] | pIC50 ([1]; read-out: PI3K α In Vitro IC50) | further results
25 | Nc1cc(-c2ccc3ncc(C(=O)N4CCOCC4)n3c2)cnc1Cl [compound 415] |  |  | > 5.00 | 
26 | CC1(C)COCCN1C(=O)c1cnc2ccc(-c3ccc4oc(N)nc4c3)cn12 [compound 514] |  |  | > 6.00 | 
27 | CN1CCN(C(=O)c2cnc3ccc(-c4ccc5oc(N)nc5c4)nn23)CC1 [compound 104] | > 5.00 |  |  | pIC50 ([2]; read-out: PI3K γ IC50): > 5.00
28 | Nc1nc2cc(-c3ccc4ncn(C5CCC5)c(=O)c4c3)ccc2o1 [compound 205] |  | > 7.00 |  | 
29 | O=C(c1cnc2ccc(-c3ccc4oc(NC5CC5)nc4c3)cn12)N1CCOCC1 [compound 409] |  |  | > 5.00 | 
30 | Nc1nc2cc(-c3ccc4ncc(C(=O)N5CCC6(C5)OCCO6)n4c3)ccc2o1 [compound 499] |  |  | > 6.00 | pIC50 ([2]; read-out: PI3K γ In Vitro IC50): > 5.00
31 | COc1ccc(-c2ccc3ncc(C(=O)N4CCOCC4)n3c2)cc1S(=O)(=O)Nc1ccccc1 [compound 444] |  |  | > 5.00 | 
32 | Nc1noc2ccc(-c3ccc4nccc(-c5ccncc5)c4c3)cc12 [compound 18] | > 5.00 |  |  | pIC50 ([2]; read-out: PI3K γ IC50): > 5.00
33 | CN1CCN(c2cnc3ccc(-c4ccc5oc(N)nc5c4)cc3n2)C(=O)C1 [compound 390] |  | > 6.00 |  | pIC50 [2, 4]: > 5.00
34 | Cn1c(N2CCOCC2)nc2cc(-c3ccc4oc(N)nc4c3)ccc2c1=O [compound 80] | > 6.00 |  |  | 
35 | Nc1nc2cc(-c3ccc4ncc(-c5ccc(N6CCOCC6)nc5)nc4c3)ccc2o1 [compound 167] | > 5.00 |  |  | 
36 | CS(=O)(=O)N1CCC(n2cnc3ccc(-c4ccc5oc(N)nc5c4)cc3c2=O)CC1 [compound 67] | > 6.00 |  |  | 
37 | Cc1nc(NC(=O)N2CCC[C@H]2C(N)=O)sc1-c1ccc2oc(N)nc2c1 [compound 311] |  | > 6.00 |  | 
38 | Cc1ccn(C2CCN(c3cnc4ccc(-c5ccc6oc(N)nc6c5)cc4n3)CC2)n1 [compound 223] |  | > 7.00 |  | pIC50 [2, 4]: > 6.00
39 | CS(=O)(=O)Nc1cc(-c2ccc3ncc(C(=O)N4CCOCC4)n3c2)ccc1Cl [compound 460] |  |  | > 5.00 | 
40 | Cc1ncccc1-c1cnc2ccc(-c3ccc4oc(N)nc4c3)cc2n1 [compound 185] | > 6.00 |  |  | 
41 | Nc1nc2ccc(-c3ccc4nnc(C(=O)N5CCCC5)n4c3)cc2o1 [compound 305] |  | > 5.00 |  | 
42 | Nc1nc2ccc(-c3ccc4ncn(C5CCOCC5)c(=O)c4c3)cc2o1 [compound 63] | > 5.00 |  |  | 
43 | Cc1c(-c2ccc3oc(N)nc3c2)ccc2ncc(N3CC(N4CCOCC4)C3)nc12 [compound 383] |  | > 6.00 |  | 
44 | Nc1nc2cc(-c3ccc4ncc(-c5ccccc5)nc4c3)ccc2o1 [compound 180] | > 6.00 |  |  | 
45 | Nc1ncc(-c2cnc3ccc(-c4ccc5oc(N)nc5c4)cc3n2)cn1 [compound 210] |  | > 6.00 |  | 
46 | CC(=O)N1CCC(n2cnc3ccc(-c4ccc5oc(N)nc5c4)cc3c2=O)CC1 [compound 66] | > 5.00 |  |  | 
47 | Nc1nsc2cc(-c3ccc4ncc(C(=O)N5CCOCC5)n4c3)ccc12 [compound 489] |  |  | > 5.00 | 
48 | COc1ncc(-c2ccc3ncc(C(=O)N4CCOCC4)n3c2)cc1N [compound 414] |  |  | > 5.00 | 

Row | SMILES | pIC50 ([1]; read-out: PI3K α IC50) | pIC50 [1, 3] | pIC50 ([1]; read-out: PI3K α In Vitro IC50) | further results
49 | Nc1nc2cc(-c3ccc4ncn(C5CCCC5)c(=O)c4c3)ccc2o1 [compound 256] |  | > 5.00 |  | 
50 | C[C@H]1CN(c2cc3cc(-c4ccc5oc(N)nc5c4)ccc3nc2N)CCN1 [compound 403] |  |  | > 5.00 | 
51 | Nc1nc2cc(-c3ccc4ncn(CCCN5CCOCC5)c(=O)c4c3)ccc2o1 [compound 290] |  | > 6.00 |  | 
52 | Nc1ncc(-c2ccc3oc(N)nc3c2)cn1 [compound 233] |  |  |  | pIC50 [2, 4]: > 5.00
53 | CCN(CC)CCn1cnc2ccc(-c3ccc4oc(N)nc4c3)cc2c1=O [compound 224] |  | > 5.00 |  | 
54 | CC(=O)Nc1nc2cc(-c3ccc4oc(N)nc4c3)ccc2s1 [compound 250] |  |  |  | pIC50 [2, 4]: > 7.00
55 | Nc1nc2cc(-c3ccc4ncc(N5CCN(CC6CC6)CC5=O)nc4c3)ccc2o1 [compound 393] |  | > 5.00 |  | 
56 | Nc1nc2cc(-c3ccc4ncn(C5CCOCC5)c(=O)c4c3)ccc2o1 [compound 55] | > 6.00 |  |  | 
57 | Nc1nc2cc(-c3cc(F)c4ncc(C(=O)N5CCOCC5)n4c3)ccc2o1 [compound 438] |  |  | > 5.00 | 
58 | Nc1nsc2c(-c3ccc4ncc(C(=O)N5CCOCC5)n4c3)cccc12 [compound 474] |  |  | > 5.00 | 
59 | CN1CCN(CCCn2cnc3ccc(-c4ccc5oc(N)nc5c4)cc3c2=O)CC1 [compound 291] |  | > 6.00 |  | 
60 | O=C(c1cnc2ccc(-c3cncc(S(=O)(=O)Nc4ccccc4)c3)cn12)N1CCOCC1 [compound 447] |  |  | > 5.00 | 
61 | Nc1nc2cc(-c3ccc4ncc(N5CCOCC5)n4c3)ccc2o1 [compound 53] | > 5.00 |  |  | 
62 | Nc1nc2ccc(-c3cc(F)c4ncc(C(=O)N5CCOCC5)n4c3)cc2o1 [compound 439] |  |  | > 5.00 | 
63 | CN1CCN(c2nc3cc(-c4ccc5oc(N)nc5c4)ccc3c(=O)n2C)CC1 [compound 79] | > 5.00 |  |  | 
64 | Cc1cc2oc(N)nc2cc1-c1ccc2ncc(N3CC(N4CCOCC4)C3)nc2c1 [compound 353] |  | > 5.00 |  | 
65 | CN(C)C1CCN(C(=O)c2cnc3ccc(-c4ccc5oc(N)nc5c4)cn23)CC1 [compound 304] |  | > 6.00 |  | 
66 | CN1CCN(C(=O)c2cnc3cnc(-c4ccc5oc(N)nc5c4)cn23)CC1 [compound 123] | > 5.00 |  |  | 
67 | Nc1nc2cc(-c3ccc4ncc(C(=O)N5CCOCC5)cc4c3)ccc2o1 [compound 97] | > 5.00 |  |  | 
68 | CN1CCN(CCn2cnc3ccc(-c4ccc5oc(N)nc5c4)cc3c2=O)CC1 [compound 280] |  | > 5.00 |  | 
69 | CCN1CCN(c2cnc3ccc(-c4ccc5oc(N)nc5c4)cc3n2)C(=O)C1 [compound 391] |  | > 5.00 |  | 
70 | Nc1nc2cccc(-c3ccc4ncc(C(=O)N5CCOCC5)n4c3)c2s1 [compound 485] |  |  | > 5.00 | 
71 | Nc1nc2cc(-c3ccc4ncc(-c5ccnc(N6CCOCC6)c5)nc4c3)ccc2o1 [compound 150] | > 6.00 |  |  | 
